Test results published in patent US20160220569A1, “CDK4/6 Inhibitor Dosage Formulations For The Protection Of Hematopoietic Stem And Progenitor Cells During Chemotherapy” (G1 Therapeutics, Inc., priority 2015, published 2016).
Values joined by “and” are separate entries in the source; they are usually repeats but may differ in a detail not shown here. Equal values may be shown once. Read-outs that look alike come from different tables or passages of the source.

Test: Compound 1 PK dosed Days 1-5 with topotecan
Assay type: in vivo, human
Conditions: for pre-dose concentration averaging: Day 4, mean; for AUC(0-inf) / Cmax / half-life: human, plasma, intravenous; for AUC(0-inf): read-out: AUCinf; for Cmax: read-out: Cmax; for half-life: read-out: t½ (converted)
Procedure: Analysis of plasma concentration versus time data for calculation of standard pharmacokinetic (PK) parameters following intravenous infusion administration was conducted using Phoenix WinNonlin version 6.3 using a nominal infusion duration and scheduled blood sampling times.

[1] = 200 mg/m^2 with Topotecan 0.75 mg/m^2 (Cohort 3), Day 1, Max
[2] = 200 mg/m^2 with Topotecan 0.75 mg/m^2 (Cohort 3), Day 1, individual subjects
[3] = 200 mg/m^2 with Topotecan 0.75 mg/m^2 (Cohort 3), Day 4, individual subjects
[4] = 200 mg/m^2 with Topotecan 1.25 mg/m^2 (Cohort 2), Day 1, Max
[5] = 200 mg/m^2 with Topotecan 1.25 mg/m^2 (Cohort 2), Day 1, Min
[6] = 200 mg/m^2 with Topotecan 1.25 mg/m^2 (Cohort 2), Day 1, individual subjects
[7] = 200 mg/m^2 with Topotecan […]^2 (Cohort 1), Day 1, Max
[8] = 200 mg/m^2 with Topotecan […]^2 (Cohort 1), Day 1, individual subjects
[9] = 200 mg/m^2 with Topotecan 0.75 mg/m^2 (Cohort 3), Day 1, Geo. Mean
[10] = 200 mg/m^2 with Topotecan 0.75 mg/m^2 (Cohort 3), Day 1, Mean
[11] = 200 mg/m^2 with Topotecan 0.75 mg/m^2 (Cohort 3), Day 1, Median
[12] = 200 mg/m^2 with Topotecan 0.75 mg/m^2 (Cohort 3), Day 4, Geometric Mean
[13] = 200 mg/m^2 with Topotecan 0.75 mg/m^2 (Cohort 3), Day 4, Mean
[14] = 200 mg/m^2 with Topotecan 0.75 mg/m^2 (Cohort 3), Day 4, Median
[15] = 200 mg/m^2 with Topotecan 1.25 mg/m^2 (Cohort 2), Day 1, Geo. Mean
[16] = 200 mg/m^2 with Topotecan 1.25 mg/m^2 (Cohort 2), Day 1, Mean
[17] = 200 mg/m^2 with Topotecan 1.25 mg/m^2 (Cohort 2), Day 1, Median

Q: What does the source list for `CN1CCN(c2ccc(Nc3ncc4cc5n(c4n3)C3(CCCCC3)CNC5=O)nc2)CC1` [Compound 1, 2′-((5-(4-methylpiperazin-1-yl)pyridin-2-yl)amino)-7′,8′-dihydro-6′H-spiro[cyclohexane-1,9′-pyrazino[1′,2′:1,5]pyrrolo[2,3-d]pyrimidin]-6′-one]?
A: AUC24.5 [1]: 2540 ng·h/mL; AUCinf [1]: 2660 ng·h/mL; t½ [1]: 9.24 h; t½ (200 mg/m^2 with Topotecan 0.75 mg/m^2 (Cohort 3), Day 1, Min): 6.64 h; AUC24.5 [2]: 2540 ng·h/mL; AUCinf [2]: 2240 ng·h/mL and 2660 ng·h/mL; t½ [2]: 6.64 h and 9.24 h and 6.69 h; t½ (200 mg/m^2 with Topotecan 0.75 mg/m^2 (Cohort 3), Day 4, Min): 6.87 h; t½ [3]: 9.54 h and 6.87 h; AUC24.5 [4]: 2450 ng·h/mL; AUCinf [4]: 2720 ng·h/mL; AUC24.5 [5]: 2130 ng·h/mL; t½ [5]: 6.14 h; AUC24.5 [6]: 2450 ng·h/mL and 2130 ng·h/mL; AUCinf [6]: 2720 ng·h/mL and 2430 ng·h/mL; t½ (200 mg/m^2 with Topotecan 1.25 mg/m^2 (Cohort 2), Day 4, Max): 10.6 h; t½ (200 mg/m^2 with Topotecan 1.25 mg/m^2 (Cohort 2), Day 4, Min): 7.15 h; t½ (200 mg/m^2 with Topotecan 1.25 mg/m^2 (Cohort 2), Day 4, individual subjects): 9.10 h and 10.6 h; AUCinf [7]: 2430 ng·h/mL; t½ [7]: 6.24 h; t½ (200 mg/m^2 with Topotecan […]^2 (Cohort 1), Day 1, Min): 5.60 h; AUCinf [8]: 2430 ng·h/mL; t½ [8]: 6.24 h; t½ (200 mg/m^2 with Topotecan […]^2 (Cohort 1), Day 4, Max): 9.15 h; t½ (200 mg/m^2 with Topotecan […]^2 (Cohort 1), Day 4, Min): 6.96 h; t½ (200 mg/m^2 with Topotecan […]^2 (Cohort 1), Day 4, individual subjects): 9.15 h; pre-dose concentration averaging (Cohort 2 (Topotecan 1.25 mg/m^2)): 33.3 ng/mL; pre-dose concentration averaging (Cohort 3 (Topotecan 0.75 mg/m^2)): 27.1 ng/mL; AUC(0-inf) [9]: 2170 ng·h/mL; Cmax [9]: 1060 ng/mL; half-life [9]: 7.33 h; AUC(0-inf) [10]: 2200 ng·h/mL; Cmax [10]: 1140 ng/mL; half-life [10]: 7.4 h; AUC(0-inf) [11]: 2220 ng·h/mL; half-life [11]: 6.85 h; half-life [2]: 7.01 h; Cmax [12]: 1200 ng/mL; half-life [12]: 8.69 h; Cmax [13]: 1330 ng/mL; half-life [13]: 8.81 h; Cmax [14]: 1590 ng/mL; half-life [14]: 8.82 h; half-life [3]: 10.7 h; AUC(0-inf) [15]: 2490 ng·h/mL; Cmax [15]: 895 ng/mL; half-life [15]: 7.77 h; AUC(0-inf) [16]: 2490 ng·h/mL; half-life [16]: 7.87 h; AUC(0-inf) [17]: 2430 ng·h/mL; half-life [17]: 8.67 h
